From the supplement of paper PMC10307832

What was measured:
Assay in all cases: relative viability (nuclei count vs DMSO), 5 days (fraction); higher = more cells survive
VE-821 + Olaparib = compound: CS(=O)(=O)c1ccc(-c2cnc(N)c(C(=O)Nc3ccccc3)n2)cc1 [VE-821] + O=C(c1cc(Cc2n[nH]c(=O)c3ccccc23)ccc1F)N1CCN(C(=O)C2CC2)CC1 [Olaparib] (partner 8 µM)
Outline: (§1)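 Each reported value is a median over duplicate plates. It expresses relative viability: treated-well nuclei count divided by vehicle-well nuclei count. Lung cancer cell lines in 1536-well plates were dosed by pin tool a day after seeding, alone with one drug or with a fixed anchor-drug dose plus five library-drug doses (not always all listed) in √10 steps, and nuclei were counted after 5 days.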

Vismodegib + Palbociclib = compound: CS(=O)(=O)c1ccc(C(=O)Nc2ccc(Cl)c(-c3ccccn3)c2)c(Cl)c1 [Vismodegib] + CC(=O)c1c(C)c2cnc(Nc3ccc(N4CCNCC4)cn3)nc2n(C2CCCC2)c1=O [Palbociclib] (partner 0.5 µM)
Outline: as §1

Vismodegib + Foretinib = compound: CS(=O)(=O)c1ccc(C(=O)Nc2ccc(Cl)c(-c3ccccn3)c2)c(Cl)c1 [Vismodegib] + COc1cc2c(Oc3ccc(NC(=O)C4(C(=O)Nc5ccc(F)cc5)CC4)cc3F)ccnc2cc1OCCCN1CCOCC1 [Foretinib] (partner 0.25 µM)
Outline: as §1

Ruxolitinib + Decitabine = compound: N#CC[C@H](C1CCCC1)n1cc(-c2ncnc3[nH]ccc23)cn1 [Ruxolitinib] + Nc1ncn([C@H]2C[C@H](O)[C@@H](CO)O2)c(=O)n1 [Decitabine] (partner 2 µM)
Outline: as §1

Row | Cell Line | relative viability (VE-821 + Olaparib; first compound 0.08 µM) | relative viability (VE-821 + Olaparib; first compound 0.253 µM) | relative viability (VE-821 + Olaparib; first compound 0.8 µM) | relative viability (VE-821 + Olaparib; first compound 2.53 µM) | relative viability (VE-821 + Olaparib; first compound 8 µM) | relative viability (Vismodegib + Palbociclib; first compound 0.08 µM) | relative viability (Vismodegib + Palbociclib; first compound 0.253 µM) | relative viability (Vismodegib + Palbociclib; first compound 0.8 µM) | relative viability (Vismodegib + Palbociclib; first compound 2.53 µM) | relative viability (Vismodegib + Palbociclib; first compound 8 µM) | relative viability (Vismodegib + Foretinib; first compound 0.08 µM) | relative viability (Vismodegib + Foretinib; first compound 0.253 µM) | relative viability (Vismodegib + Foretinib; first compound 0.8 µM) | relative viability (Vismodegib + Foretinib; first compound 2.53 µM) | relative viability (Vismodegib + Foretinib; first compound 8 µM) | relative viability (Ruxolitinib + Decitabine; first compound 0.08 µM) | relative viability (Ruxolitinib + Decitabine; first compound 0.253 µM) | relative viability (Ruxolitinib + Decitabine; first compound 0.8 µM) | relative viability (Ruxolitinib + Decitabine; first compound 2.53 µM) | relative viability (Ruxolitinib + Decitabine; first compound 8 µM)
1 | NCI-H661 | 0.766 | 0.801 | 0.671 | 0.708 | 0.687 | 0.446 | 0.432 | 0.439 | 0.39 | 0.405 | 1.07 | 1.02 | 0.99 | 0.961 | 1.09 | 0.547 | 0.548 | 0.588 | 0.484 | 0.505
2 | NCI-H727 | 0.725 | 0.694 | 0.765 | 0.682 | 0.66 | 0.687 | 0.649 | 0.631 | 0.723 | 0.639 | 0.973 | 0.867 | 0.896 | 0.761 | 0.792 | 0.578 | 0.901 | 0.936 | 0.841 | 0.842
3 | NCI-H838 | 0.866 | 0.856 | 0.765 | 0.638 | 0.365 | 0.214 | 0.225 | 0.227 | 0.261 | 0.273 | 0.987 | 0.979 | 0.997 | 1.06 | 1.03 | 0.466 | 0.437 | 0.489 | 0.351 | 0.28
4 | NCI-H1355 | 0.822 | 0.719 | 0.66 | 0.716 | 0.351 | 0.391 | 0.441 | 0.384 | 0.413 | 0.433 | 0.92 | 0.988 | 0.904 | 0.997 | 0.987 | 0.353 | 0.376 | 0.398 | 0.326 | 0.358
5 | NCI-H1395 | 0.422 | 0.49 | 0.481 | 0.441 | 0.438 | 0.609 | 0.599 | 0.606 | 0.711 | 0.673 | 0.918 | 0.873 | 0.999 | 0.961 | 1.03 | 0.698 | 0.697 | 0.77 | 0.69 | 0.686
6 | NCI-H1437 | 0.66 | 0.739 | 0.628 | 0.525 | 0.386 | 0.305 | 0.303 | 0.309 | 0.311 | 0.325 | 1.23 | 1.22 | 1.25 | 1.21 | 1.26 | 0.716 | 0.623 | 0.631 | 0.634 | 0.603
7 | NCI-H1650 | 0.686 | 0.83 | 0.542 | 0.796 | 0.429 | 0.365 | 0.363 | 0.305 | 0.304 | 0.366 | 1.08 | 0.938 | 1.13 | 1.07 | 1.21 | 0.321 | 0.338 | 0.438 | 0.418 | 0.442
8 | NCI-H1651 | 0.187 | 0.204 | 0.19 | 0.163 | 0.165 | 0.463 | 0.511 | 0.502 | 0.51 | 0.54 | 0.818 | 0.604 | 0.782 | 0.739 | 0.781 | 0.514 | 0.604 | 0.624 | 0.438 | 0.655
9 | NCI-H1666 | 0.758 | 0.742 | 0.839 | 0.944 | 0.79 | 0.634 | 0.678 | 0.637 | 0.624 | 0.691 | 1.01 | 0.935 | 1.05 | 0.925 | 0.936 | 0.601 | 0.666 | 0.753 | 0.678 | 0.721
10 | NCI-H1734 | 0.708 | 0.673 | 0.558 | 0.498 | 0.303 | 0.372 | 0.348 | 0.364 | 0.255 | 0.358 | 0.875 | 0.869 | 0.876 | 0.772 | 0.946 | 0.512 | 0.485 | 0.613 | 0.423 | 0.494
11 | NCI-H1755 | 0.928 | 0.859 | 0.854 | 0.893 | 0.719 | 0.49 | 0.456 | 0.409 | 0.368 | 0.502 | 0.894 | 0.91 | 0.947 | 0.96 | 0.913 | 0.742 | 0.686 | 0.755 | 0.694 | 0.667
12 | NCI-H1793 | 1 | 0.878 |  | 0.763 | 0.547 |  | 0.295 | 0.345 | 0.321 | 0.422 |  | 0.524 | 0.616 | 0.848 | 0.609 | 0.436 | 0.502 | 0.488 | 0.392 | 0.413
13 | NCI-H1915 | 0.274 | 0.274 | 0.201 | 0.202 | 0.152 | 0.499 | 0.483 | 0.549 | 0.53 | 0.53 | 1.02 | 1.06 | 1.05 | 1.05 | 1.08 | 0.262 | 0.278 | 0.275 | 0.237 | 0.233
14 | NCI-H1944 | 0.434 | 0.417 | 0.356 | 0.366 | 0.225 | 0.292 | 0.324 | 0.326 |  | 0.379 | 0.851 | 0.794 | 0.897 | 0.878 | 0.942 | 0.445 | 0.394 | 0.467 | 0.393 | 0.409
15 | NCI-H1975 | 0.883 | 0.715 | 0.672 | 0.57 | 0.334 | 0.666 | 0.521 | 0.662 | 0.542 | 0.559 | 0.993 | 0.996 | 0.933 | 0.832 | 0.964 | 0.329 | 0.384 | 0.36 | 0.304 | 0.222
16 | NCI-H1993 | 1.21 | 0.943 | 1.03 | 1.01 | 0.942 | 0.699 | 0.682 | 0.636 | 0.568 | 0.565 | 0.863 | 0.654 | 0.782 | 0.773 | 0.675 | 0.582 | 0.53 | 0.595 | 0.534 | 0.59
